Assay results from ChEMBL document CHEMBL1926563, “Synthesis, antimicrobial, antimycobacterial and structure-activity relationship of substituted pyrazolo-, isoxazolo-, pyrimido- and mercaptopyrimidocyclohepta[b]indoles” (2012).
Values after ≈ are worked out from the molar mass of the structure shown.

Assays:
Assay type in all cases: functional
Fusarium solani [1] = test: Antifungal activity against Fusarium solani NCIM 1330 assessed as zone of inhibition at 200 ug/disc after 48 hrs by disk diffusion method; settings: NCIM 1330, 48 h, read-out: DIZ
Curvularia lunata [2] = test: Antifungal activity against Curvularia lunata NCIM 716 assessed as zone of inhibition at 200 ug/disc after 48 hrs by disk diffusion method; settings: NCIM 716, 48 h, read-out: DIZ
Aspergillus niger [3] = test: Antifungal activity against Aspergillus niger NCIM 596 after 48 hrs by disk diffusion method; settings: NCIM 596, 48 h
Curvularia lunata [4] = test: Antifungal activity against Curvularia lunata NCIM 716 after 48 hrs by disk diffusion method; settings: NCIM 716, 48 h
Aspergillus niger [5] = test: Antifungal activity against Aspergillus niger NCIM 596 assessed as zone of inhibition at 200 ug/disc after 48 hrs by disk diffusion method; settings: NCIM 596, 48 h, read-out: DIZ
Aspergillus niger [6] = test: Antifungal activity against Aspergillus niger NCIM 596 assessed as zone of inhibition at 100 ug/disc after 48 hrs by disk diffusion method; settings: NCIM 596, 48 h, read-out: DIZ
Fusarium solani [7] = test: Antifungal activity against Fusarium solani NCIM 1330 assessed as zone of inhibition at 100 ug/disc after 48 hrs by disk diffusion method; settings: NCIM 1330, 48 h, read-out: DIZ
Fusarium solani [8] = test: Antifungal activity against Fusarium solani NCIM 1330 after 48 hrs by disk diffusion method; settings: NCIM 1330, 48 h
Curvularia lunata [9] = test: Antifungal activity against Curvularia lunata NCIM 716 assessed as zone of inhibition at 100 ug/disc after 48 hrs by disk diffusion method; settings: NCIM 716, 48 h, read-out: DIZ
Proteus vulgaris [10] = test: Antibacterial activity against Proteus vulgaris NCIM 2027 assessed as zone of inhibition at 200 ug/disc after 24 hrs by disk diffusion method; settings: NCIM 2027, 24 h, read-out: DIZ
Bacillus subtilis [11] = test: Antibacterial activity against Bacillus subtilis NCIM 2063 after 24 hrs by disk diffusion method; settings: NCIM 2063, 24 h
Proteus vulgaris [12] = test: Antibacterial activity against Proteus vulgaris NCIM 2027 after 24 hrs by disk diffusion method; settings: NCIM 2027, 24 h
Bacillus subtilis [13] = test: Antibacterial activity against Bacillus subtilis NCIM 2063 assessed as zone of inhibition at 100 ug/disc after 24 hrs by disk diffusion method; settings: NCIM 2063, 24 h, read-out: DIZ
Staphylococcus aureus [14] = test: Antibacterial activity against Staphylococcus aureus NCIM 5021 assessed as zone of inhibition at 200 ug/disc after 24 hrs by disk diffusion method; settings: NCIM 5021, 24 h, read-out: DIZ
Staphylococcus aureus [15] = test: Antibacterial activity against Staphylococcus aureus NCIM 5021 after 24 hrs by disk diffusion method; settings: NCIM 5021, 24 h
Klebsiella pneumoniae [16] = test: Antibacterial activity against Klebsiella pneumoniae NCIM 2957 assessed as zone of inhibition at 100 ug/disc after 24 hrs by disk diffusion method; settings: NCIM 2957, 24 h, read-out: DIZ
Proteus vulgaris [17] = test: Antibacterial activity against Proteus vulgaris NCIM 2027 assessed as zone of inhibition at 100 ug/disc after 24 hrs by disk diffusion method; settings: NCIM 2027, 24 h, read-out: DIZ
Klebsiella pneumoniae [18] = test: Antibacterial activity against Klebsiella pneumoniae NCIM 2957 assessed as zone of inhibition at 200 ug/disc after 24 hrs by disk diffusion method; settings: NCIM 2957, 24 h, read-out: DIZ
Bacillus subtilis [19] = test: Antibacterial activity against Bacillus subtilis NCIM 2063 assessed as zone of inhibition at 200 ug/disc after 24 hrs by disk diffusion method; settings: NCIM 2063, 24 h, read-out: DIZ
Staphylococcus aureus [20] = test: Antibacterial activity against Staphylococcus aureus NCIM 5021 assessed as zone of inhibition at 100 ug/disc after 24 hrs by disk diffusion method; settings: NCIM 5021, 24 h, read-out: DIZ
Klebsiella pneumoniae [21] = test: Antibacterial activity against Klebsiella pneumoniae NCIM 2957 after 24 hrs by disk diffusion method; settings: NCIM 2957, 24 h
[22] = tested on: Mycobacterium tuberculosis; test: Antimycobacterial activity against Mycobacterium tuberculosis H37Rv after 7 days by resazurin microtiter plate assay; settings: 168 h

SMILES: CC(=O)N1CCN(c2ccc(OCC3COC(Cn4ccnc4)(c4ccc(Cl)cc4Cl)O3)cc2)CC1 (stereo not given) [KETOCONAZOLE]
- zone of inhibition at 200 µg/disc (Fusarium solani [1]): 40 mm
- zone of inhibition at 200 µg/disc (Curvularia lunata [2]): 43 mm
- MIC (Aspergillus niger [3]): 6.25 µg/mL (≈ 11.8 µM)
- MIC (Curvularia lunata [4]): 6.25 µg/mL (≈ 11.8 µM)
- zone of inhibition at 200 µg/disc (Aspergillus niger [5]): 38 mm
- zone of inhibition at 100 µg/disc (Aspergillus niger [6]): 35 mm
- zone of inhibition at 100 µg/disc (Fusarium solani [7]): 36 mm
- MIC (Fusarium solani [8]): 12.5 µg/mL (≈ 23.5 µM)
- zone of inhibition at 100 µg/disc (Curvularia lunata [9]): 40 mm

SMILES: O=C(N[C@H](CO)[C@H](O)c1ccc([N+](=O)[O-])cc1)C(Cl)Cl [CHLORAMPHENICOL]
- zone of inhibition at 200 µg/disc (Proteus vulgaris [10]): 44 mm
- MIC (Bacillus subtilis [11]): 6.25 µg/mL (≈ 19.3 µM)
- MIC (Proteus vulgaris [12]): 12.5 µg/mL (≈ 38.7 µM)
- zone of inhibition at 100 µg/disc (Bacillus subtilis [13]): 38 mm
- zone of inhibition at 200 µg/disc (Staphylococcus aureus [14]): 41 mm
- MIC (Staphylococcus aureus [15]): 6.25 µg/mL (≈ 19.3 µM)
- zone of inhibition at 100 µg/disc (Klebsiella pneumoniae [16]): 37 mm
- zone of inhibition at 100 µg/disc (Proteus vulgaris [17]): 42 mm
- zone of inhibition at 200 µg/disc (Klebsiella pneumoniae [18]): 42 mm
- zone of inhibition at 200 µg/disc (Bacillus subtilis [19]): 43 mm
- zone of inhibition at 100 µg/disc (Staphylococcus aureus [20]): 35 mm
- MIC (Klebsiella pneumoniae [21]): 12.5 µg/mL (≈ 38.7 µM)

SMILES: Sc1ncc2c(n1)-c1[nH]c3ccc(Cl)cc3c1CCC2
- zone of inhibition at 200 µg/disc (Proteus vulgaris [10]): 13 mm
- MIC [22]: 25 µg/mL (≈ 82.8 µM)
- MIC (Bacillus subtilis [11]): 50 µg/mL (≈ 166 µM)
- MIC (Proteus vulgaris [12]): 100 µg/mL (≈ 331 µM)
- zone of inhibition at 200 µg/disc (Fusarium solani [1]): 19 mm
- zone of inhibition at 100 µg/disc (Bacillus subtilis [13]): 15 mm
- zone of inhibition at 200 µg/disc (Curvularia lunata [2]): 21 mm
- MIC (Aspergillus niger [3]): 50 µg/mL (≈ 166 µM)
- zone of inhibition at 200 µg/disc (Staphylococcus aureus [14]): 18 mm
- MIC (Staphylococcus aureus [15]): 50 µg/mL (≈ 166 µM)
- MIC (Curvularia lunata [4]): 50 µg/mL (≈ 166 µM)
- zone of inhibition at 200 µg/disc (Aspergillus niger [5]): 17 mm
- zone of inhibition at 100 µg/disc (Klebsiella pneumoniae [16]): 12 mm
- zone of inhibition at 100 µg/disc (Aspergillus niger [6]): 15 mm
- zone of inhibition at 100 µg/disc (Proteus vulgaris [17]): 11 mm
- zone of inhibition at 100 µg/disc (Fusarium solani [7]): 16 mm
- MIC (Fusarium solani [8]): 100 µg/mL (≈ 331 µM)
- zone of inhibition at 100 µg/disc (Curvularia lunata [9]): 17 mm
- zone of inhibition at 200 µg/disc (Klebsiella pneumoniae [18]): 14 mm
- zone of inhibition at 200 µg/disc (Bacillus subtilis [19]): 17 mm
- zone of inhibition at 100 µg/disc (Staphylococcus aureus [20]): 16 mm
- MIC (Klebsiella pneumoniae [21]): 100 µg/mL (≈ 331 µM)

SMILES: Clc1ccc2[nH]c3c(c2c1)CCCc1conc1-3
- zone of inhibition at 200 µg/disc (Proteus vulgaris [10]): 30 mm
- MIC [22]: 3.12 µg/mL (≈ 12.1 µM)
- MIC (Bacillus subtilis [11]): 50 µg/mL (≈ 193 µM)
- MIC (Proteus vulgaris [12]): 200 µg/mL (≈ 773 µM)
- zone of inhibition at 200 µg/disc (Fusarium solani [1]): 35 mm
- zone of inhibition at 100 µg/disc (Bacillus subtilis [13]): 31 mm
- zone of inhibition at 200 µg/disc (Curvularia lunata [2]): 33 mm
- MIC (Aspergillus niger [3]): 100 µg/mL (≈ 387 µM)
- zone of inhibition at 200 µg/disc (Staphylococcus aureus [14]): 33 mm
- MIC (Staphylococcus aureus [15]): 50 µg/mL (≈ 193 µM)
- MIC (Curvularia lunata [4]): 100 µg/mL (≈ 387 µM)
- zone of inhibition at 200 µg/disc (Aspergillus niger [5]): 32 mm
- zone of inhibition at 100 µg/disc (Klebsiella pneumoniae [16]): 26 mm
- zone of inhibition at 100 µg/disc (Aspergillus niger [6]): 29 mm
- zone of inhibition at 100 µg/disc (Proteus vulgaris [17]): 28 mm
- zone of inhibition at 100 µg/disc (Fusarium solani [7]): 33 mm
- MIC (Fusarium solani [8]): 100 µg/mL (≈ 387 µM)
- zone of inhibition at 100 µg/disc (Curvularia lunata [9]): 31 mm
- zone of inhibition at 200 µg/disc (Klebsiella pneumoniae [18]): 29 mm
- zone of inhibition at 200 µg/disc (Bacillus subtilis [19]): 34 mm
- zone of inhibition at 100 µg/disc (Staphylococcus aureus [20]): 32 mm
- MIC (Klebsiella pneumoniae [21]): 100 µg/mL (≈ 387 µM)
